Test results as given in patent publication US11278682B2, “Device and method for aerosolized delivery of substance to a natural orifice of the body” (SIPNOSE LTD., priority 2014, dated 2022).
Entries after “also recorded” stand apart in the source; their conditions may differ.

What was measured:
[1] = test system: patient suffering from epileptic seizures (SE); test: Anti-epileptic treatment of status epilepticus with Midazolam, EEG recordings (case study); type: in vivo, human; settings: 2 mg Midazolam via SipNose, nasal
Procedure: Case study of a patient, suffering from epileptic seizures (SE) was treated with a dose of 2 mg Midazolam with sipNose delivery device to deliver Midazolam via the nasal cavity.
Administration of Midazolam was done by administrating of […] of Midazolam to each nostril in a carrier volume of 1 ml. EEG recordings were measured before (FIGS. 82A and 82B) and 3 minutes following to the nasal administration of the drug with SipNose device.

patients = test: Midazolam as pre-anesthetic drug: effectiveness, safety and user compliance, SipNose vs commercial nasal pump; type: in vivo, human; settings: for BIS value (minimum after administration): 8 patients
Procedure: Midazolam was administered as a pre-anesthetic drug as a part of premeditation to subjects that needed to be anesthetized prior to the beginning a surgical procedure. Administration of the pre-anesthetic drug was done intranasally instead of the routine PO/IM (oral/intramuscular) route used by the anesthesiologist from the hospital.
The intranasal administration was given by one of the following medical devices: a SipNose nasal device (FIG. 93A) or a commercial nasal pump (FIG. 93B). A single dose of 1×600 microliter (μl) was given with the SipNose device, while 6×100 μl doses were given with a commercial nasal pump. An exemplary administration for the SipNose device is shown in FIG. 94A, while an exemplary administration for the commercial nasal pump is shown in FIG. 94B.
Eight low-risk patients (American Society of Anesthesiology physical status classification I or II) patients were included in each group. Clinical status of the patients, standard continuous monitoring of vital signs, and continuous bispectral index (BIS) monitoring was ongoing 5 minutes before intranasal administration and 30 minutes after.
The objective data consisted in minimum BIS value obtained after administration and time until minimum BIS. The subjective data consisted in physician feedback, swallowing of the drug appreciated by patient, sleeping score appreciated by physician.
Sedation Score was evaluated by physicians as a behavior tool to determine effectiveness of the dose that was given in each of the nasal administrations. Scoring was done according to the following criteria: 1=not Sleepy (not effective); 2=Sleepy/Calm (intermediate effect); 3=Sleeping (drug was effective).
Patients were asked to score if they felt the drug in their throat and/or felt a bitter taste in the throat after the administration of the drug.
The bitterness and swallowing were graded according to the following scale: 1=No swallowing/No bitter taste; 5=A meaningful amount was swallowed/Strong bitter taste.
The repeated administrations with the nasal pump were given with 30 s intervals between them to allow the drug to be absorbed in the nasal cavity before another dose was given.
The anesthesiologist in charge of the patients was asked to rate the overall experience with intranasal administration of midazolam. (1=very good; 5=Not satisfactory).

Sprague-Dawley (SD) rats = test: Safety and toxicity of intranasal Midazolam via SipNose device; type: in vivo, rat
Procedure: Safety and possible adverse effects (toxicity) were assessed the safety and toxicity including adverse effects of Midazolam following intranasal administration via SipNose dedicated device to Sprague-Dawley (SD) rats.
A total of 78 SD rats (39 female and 39 male) were utilized. The animals were divided into four groups of 3 or 12 female rats and 3 or 12 male rats. At each of the times 6 hrs, 24 hrs, 7 days, and 14 days, three males and three females were sacrificed.
The test material was a commercially available injectable Midazolam.
The day of dosing was Day 1 and termination days were Day 1 (6 hrs), Day 2 (24 hrs), Day 8 and Day 15.
Each test material or vehicle dose was administrated to three female and three male rats at each of the above times. The administration was performed intranasally (IN) via a SipNose device. The dose volume was 25-125 μl per naris (50-250 μl total per rat). Dosing was performed in an escalating fashion, each increase in dose depending on the outcome of the previous dose. The time between increasing doses was approximately half an hour.
Dosing was performed in a staggered fashion, each increase in dose pending on the outcome of the previous dose. The lag time between the increasing doses was approximately half an hour. The maximum dose was five times the clinical dose in order to determine a maximum tolerated dose.
The test material and vehicle were administered IN once via a SipNose device at a dose volume of 50-250 μl to non-fasting animals.
Animals were observed individually at least once during the first 30 minutes alter dosing and daily thereafter, for a total of 1, 7, or 14 days (according to time of sacrifice for histological observation). All observations were systematically recorded and individual records were maintained for each animal.
Body weight was monitored one day after the animals' arrival, prior to administration of the test material and twice a week thereafter (days 4, 8, 10 and 15) for a total of 5 times.
Clinical signs were observed daily, at least once during the first 30 min after dosing, periodically during the first 24 h, with special attention during the first 4 h, and once daily thereafter.
Animals were sacrificed by carbon dioxide asphyxiation and gross pathology was performed examining the major tissue and organ systems. All animals were subjected to gross necropsy.
The tissue samples from groups 1, 2, 3 and 4 (M+F) were embedded, sectioned and mounted on slides. The tissue sections were stained with Hematoxylin & Eosin (H&E).
Three cross sections of the skull and brain were taken: (1) in the nose from rostral area, (2) behind the incisor teeth and (3) in the caudal area including the olfactory epithelium labyrinth (FIG. 85). The brain was dissected in the olfactory regions, hippocampus, cerebellum and brain stem. The lungs were evaluated in both right and left lobes. The inflammatory status in the tissue samples were evaluated using the following parameters.
• Grade 0: No inflammation • Grade 1: Mild (few inflammatory cells, 10-20 per ×40 high-power field) • Grade 2: moderate (more inflammatory cells, 20-50 per ×40 high-power field), • Grade 3: severe (many inflammatory cells, more than 50 per ×40 high-power field).

## Cc1ncc2n1-c1ccc(Cl)cc1C(c1ccccc1F)=NC2 [Midazolam]
[1]
  time after administration at which brain activity (EEG) is back to normal: 3 min
patients; Commercial Nasal Pump
  patients with Highly Effective sedation: 12.5%
  patients with Intermediate Effect of sedation: 50%
  patients with sedation Not Effective: 37.5%
patients; SipNose
  patients with Highly Effective sedation: 100%
patients; SipNose group
  Sedation Score (1 not sleepy, 2 sleepy/calm, 3 sleeping): 3
patients; SipNose group, 1×600 μl
  BIS value (minimum after administration): 74.50±3.196
patients; both administration procedures (SipNose and commercial nasal pump)
  adverse events or safety issues: No adverse events or safety issues were reported
patients; commercial pump group
  Sedation Score (1 not sleepy, 2 sleepy/calm, 3 sleeping): below 2
patients; commercial pump group, 6×100 μl
  BIS value (minimum after administration): 87.25±1.840
Sprague-Dawley (SD) rats; SD rats, Midazolam treated groups
  death of neurons in the brain: No death of neurons was detected
Sprague-Dawley (SD) rats; SD rats, both tested doses (clinical dose and five times clinical dose)
  adverse effects or histopathological findings in examined tissues: no adverse effects or histopathological findings; also recorded: no pathological abnormalities were found
Sprague-Dawley (SD) rats; SD rats, seen in saline and Midazolam groups, 12 out of 42 animals
  very mild inflammation in most caudal cross section of the nose: most probably not drug-related
Sprague-Dawley (SD) rats; SD rats, single intranasal dose via SipNose, up to 14 days
  clinical signs: No abnormal clinical signs were detected
Sprague-Dawley (SD) rats; female rats, five times the clinical dose, days 10 and 15
  weight gain vs control group: statistically significant greater weight gain
Sprague-Dawley (SD) rats; male rats, clinical dose of Midazolam, at several times
  body weight increase vs control group: statistically significant greater increase in weight
